Data: patent US9708316B2 (BRISTOL-MYERS SQUIBB COMPANY, priority 2014, dated 2017)
Where two headings read alike, the source gives them in different places.

What was measured:
HIS-TGFβR2 WT = HIS-TGFβR2 WT (Homo sapiens, UniProt P37173); assay: HTRF probe-displacement assay, HIS-TGFβR2 WT; type: binding
HIS-TGFβR1 T204D = target: T1, HIS-TGFβR1 T204D (Homo sapiens, UniProt P36897, T204D); assay: HTRF probe-displacement assay, HIS-TGFβR1 T204D; type: binding; settings: read-out: TGFβR1 (μM) IC50
T1 sequence (P36897 34-503 T204D): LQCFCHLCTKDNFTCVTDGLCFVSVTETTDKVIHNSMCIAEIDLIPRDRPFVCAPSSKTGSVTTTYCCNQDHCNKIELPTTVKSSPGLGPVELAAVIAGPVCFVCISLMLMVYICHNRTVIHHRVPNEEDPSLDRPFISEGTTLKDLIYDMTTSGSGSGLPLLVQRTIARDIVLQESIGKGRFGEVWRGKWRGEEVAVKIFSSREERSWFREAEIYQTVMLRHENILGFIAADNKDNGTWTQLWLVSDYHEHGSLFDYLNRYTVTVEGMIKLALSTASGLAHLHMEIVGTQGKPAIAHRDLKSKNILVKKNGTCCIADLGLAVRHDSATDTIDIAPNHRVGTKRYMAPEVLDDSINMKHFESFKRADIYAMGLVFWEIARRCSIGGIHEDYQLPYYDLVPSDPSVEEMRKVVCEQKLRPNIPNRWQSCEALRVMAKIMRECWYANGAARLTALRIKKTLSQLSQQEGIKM

HIS-TGFβR2 WT, sequence (P37173 23-567): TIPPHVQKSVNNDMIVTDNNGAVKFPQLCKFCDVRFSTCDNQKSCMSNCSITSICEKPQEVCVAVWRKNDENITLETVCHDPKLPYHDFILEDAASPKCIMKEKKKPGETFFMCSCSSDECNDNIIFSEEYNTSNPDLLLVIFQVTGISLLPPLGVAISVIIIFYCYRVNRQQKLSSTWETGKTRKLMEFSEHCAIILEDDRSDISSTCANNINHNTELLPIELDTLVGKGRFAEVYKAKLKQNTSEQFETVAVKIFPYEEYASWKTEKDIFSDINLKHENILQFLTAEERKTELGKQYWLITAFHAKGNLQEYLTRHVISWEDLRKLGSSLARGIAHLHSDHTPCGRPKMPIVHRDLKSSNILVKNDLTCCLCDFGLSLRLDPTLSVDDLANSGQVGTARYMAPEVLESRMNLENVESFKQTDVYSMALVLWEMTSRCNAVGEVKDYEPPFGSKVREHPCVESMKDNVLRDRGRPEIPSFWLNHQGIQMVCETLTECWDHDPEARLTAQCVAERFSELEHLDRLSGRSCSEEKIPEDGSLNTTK

Compound	IC50 (HIS-TGFβR2 WT)	IC50 (HIS-TGFβR1 T204D)	IC50 (HIS-TGFβR1 T204D; 1 nM HIS-TGFβR1 T204D, labeled probe at Kd, 1 hour room temperature, eleven concentrations)
CC(=O)Nc1cc(-c2[nH]c3cccnc3c2-c2cccc(F)n2)ccn1 [Example 16, N-{4-[3-(6-Fluoropyridin-2-yl)-1H-pyrrolo[3,2-b]pyridin-2-yl]pyridin-2-yl}acetamide]	0.087 µM	0.002 µM	
COc1ccc(-c2c(-c3ccnc(NC(C)=O)c3)[nH]c3cc(F)cnc23)nc1 [Example 39, N-{4-[6-Fluoro-3-(5-methoxypyridin-2-yl)-1H-pyrrolo[3,2-b]pyridin-2-yl]pyridin-2-yl}acetamide]	> 15 µM	0.002 µM	
CC(=O)Nc1cc(-c2[nH]c3cccnc3c2-c2ccc3ncccc3c2)ccn1 [Example 22, N-{4-[3-(Quinolin-6-yl)-1H-pyrrolo[3,2-b]pyridin-2-yl]pyridin-2-yl}acetamide]	> 15 µM	0.039 µM	
CC(=O)Nc1cc(-c2[nH]c3cc(C)cnc3c2-c2ncc(C(F)F)s2)ccn1 [Example 185, N-(4-(3-(5-(Difluoromethyl)thiazol-2-yl)-6-methyl-1H-pyrrolo[3,2-b]pyridin-2-yl)pyridin-2-yl)acetamide]	> 15 µM	7 µM	
CCOc1ccc(-c2c(-c3ccnc(NC(C)=O)c3)[nH]c3cc(Cl)cnc23)nc1 [Example 253, N-(4-(6-Chloro-3-(5-ethoxypyridin-2-yl)-1H-pyrrolo[3,2-b]pyridin-2-yl)pyridin-2-yl)acetamide]	> 15 µM	0.004 µM	
CC(=O)Nc1cc(-c2[nH]c3cccnc3c2-c2ccc(C#N)nc2)ccn1 [Example 12, N-{4-[3-(6-Cyanopyridin-3-yl)-1H-pyrrolo[3,2-b]pyridin-2-yl]pyridin-2-yl}acetamide]	1.31 µM	0.058 µM	
CC(=O)Nc1cc(-c2[nH]c3cccnc3c2-c2nc(C#N)cs2)ccn1 [Example 203, N-(4-(3-(4-Cyanothiazol-2-yl)-1H-pyrrolo[3,2-b]pyridin-2-yl)pyridin-2-yl)acetamide]	> 15 µM	0.774 µM	
COc1ccc(-c2c(-c3ccnc(NC(=O)CN4CCN(C)CC4)c3)[nH]c3cc(Cl)cnc23)nc1 [Example 249, N-(4-(6-Chloro-3-(5-methoxypyridin-2-yl)-1H-pyrrolo[3,2-b]pyridin-2-yl)pyridin-2-yl)-2-(4-methylpiperazin-1-yl)acetamide]	> 15 µM	0.007 µM	
COc1ccc(-c2c(-c3ccnc(NC(C)=O)c3)[nH]c3cc(N(C)CCO)cnc23)nc1 [Example 165, N-(4-(6-((2-Hydroxyethyl)(methyl)amino)-3-(5-methoxypyridin-2-yl)-1H-pyrrolo[3,2-b]pyridin-2-yl)pyridin-2-yl)acetamide]	> 15 µM	0.0353 µM	
CC(=O)Nc1cc(-c2[nH]c3c([C@H](C)O)ccnc3c2-c2cccc(C(F)F)n2)ccn1 (single isomer, unassigned) [Example 147]	0.75 µM	0.002 µM	
CC(=O)Nc1cc(-c2[nH]c3cccnc3c2-c2ccnc(C#N)c2)ccn1 [Example 190, N-(4-(3-(2-Cyanopyridin-4-yl)-1H-pyrrolo[3,2-b]pyridin-2-yl)pyridin-2-yl)acetamide]	7.56 µM	0.0443 µM	
[2H]C([2H])([2H])Oc1ccc(-c2c(-c3ccnc(NC(C)=O)c3)[nH]c3cc(OC)cnc23)nc1 [Example 112, N-(4-(6-Methoxy-3-(5-(methoxy-d3)pyridin-2-yl)-1H-pyrrolo[3,2-b]pyridin-2-yl)pyridin-2-yl)acetamide]	8.75 µM	0.001 µM	
CCOc1ccnc2c(-c3cccc(C(F)F)n3)c(-c3ccnc(NC(C)=O)c3)[nH]c12 [Example 125, N-(4-{3-[6-(Difluoromethyl)pyridin-2-yl]-7-ethoxy-1H-pyrrolo[3,2-b]pyridin-2-yl}pyridin-2-yl)acetamide]	> 15 µM	0.003 µM	
CC(=O)Nc1cc(-c2[nH]c3cc(Cl)cnc3c2-c2cccc(C(F)F)n2)ccn1 [Example 171, N-(4-(6-Chloro-3-(6-(difluoromethyl)pyridin-2-yl)-1H-pyrrolo[3,2-b]pyridin-2-yl)pyridin-2-yl)acetamide]	10.8 µM	0.001 µM	
COc1ccc(-c2c(-c3ccnc(NC(C)=O)c3)[nH]c3cc(N4CC[C@H](O)[C@@H](O)C4)cnc23)nc1 [Example 166, N-(4-(6-((3S,4S)-3,4-Dihydroxypiperidin-l-yl)-3-(5-methoxypyridin-2-yl)-1H-pyrrolo[3,2-b]pyridin-2-yl)pyridin-2-yl)acetamide]	> 15 µM	0.0132 µM	
COc1ccc(-c2c(-c3ccnc(NC(C)=O)c3)[nH]c3cc(C)cnc23)nc1 [Example 184, N-(4-(3-(5-Methoxypyridin-2-yl)-6-methyl-1H-pyrrolo[3,2-b]pyridin-2-yl)pyridin-2-yl)acetamide]	> 15 µM	6.52 µM	

Compound	IC50 (HIS-TGFβR2 WT)	IC50 (HIS-TGFβR1 T204D)	IC50 (HIS-TGFβR1 T204D; 1 nM HIS-TGFβR1 T204D, labeled probe at Kd, 1 hour room temperature, eleven concentrations)
COc1ccc(-c2c(-c3ccnc(NC(C)=O)c3)[nH]c3cccnc23)nc1C [Example 237, N-(4-(3-(5-Methoxy-6-methylpyridin-2-yl)-1H-pyrrolo[3,2-b]pyridin-2-yl)pyridin-2-yl)acetamide]	> 15 µM	0.111 µM	
COc1ccc(-c2c(-c3ccnc(NC(C)=O)c3)[nH]c3c(C(=O)NC(CO)CO)ccnc23)cn1 [Example 59, N-(1,3-Dihydroxypropan-2-yl)-2-(2-acetamidopyridin-4-yl)-3-(6-methoxypyridin-3-yl)-1H-pyrrolo[3,2-b]pyridine-7-carboxamide]	6.37 µM	0.021 µM	
CCOc1cnc2c(-c3ccc(OC)cn3)c(-c3ccnc(NC(C)=O)c3)[nH]c2c1 [Example 96, N-(4-(6-Ethoxy-3-(5-methoxypyridin-2-yl)-1H-pyrrolo[3,2-b]pyridin-2-yl)pyridin-2-yl)acetamide]	> 15 µM	0.001 µM	
CC(=O)Nc1cc(-c2[nH]c3cccnc3c2-c2nc(C)cs2)ccn1 [Example 199, N-(4-(3-(4-Methylthiazol-2-yl)-1H-pyrrolo[3,2-b]pyridin-2-yl)pyridin-2-yl)acetamide]	0.041 µM	0.0006 µM	
[2H]C([2H])([2H])Oc1ccc(-c2c(-c3ccnc(NC(C)=O)c3)[nH]c3cc(F)cnc23)nc1 [Example 106, N-(4-(6-Fluoro-3-(5-(methoxy-d3)pyridin-2-yl)-1H-pyrrolo[3,2-b]pyridin-2-yl)pyridin-2-yl)acetamide]			0.003 µM
COc1cnc2c(-c3csc(C#N)n3)c(-c3ccnc(NC(C)=O)c3)[nH]c2c1 [Example 228, N-(4-(3-(2-Cyanothiazol-4-yl)-6-methoxy-1H-pyrrolo[3,2-b]pyridin-2-yl)pyridin-2-yl)acetamide]	4.24 µM		
CCc1ccnc2c(-c3cccc(C(F)F)n3)c(-c3ccnc(NC(C)=O)c3)[nH]c12 [Example 128, N-(4-{3-[6-(Difluoromethyl)pyridin-2-yl]-7-ethyl-1H-pyrrolo[3,2-b]pyridin-2-yl}pyridin-2-yl)acetamide]	5.26 µM		
CC(=O)Nc1cc(-c2[nH]c3cc(F)cnc3c2-c2csc(C)n2)ccn1 [Example 207, N-(4-(6-Fluoro-3-(2-methylthiazol-4-yl)-1H-pyrrolo[3,2-b]pyridin-2-yl)pyridin-2-yl)acetamide]	5.65 µM		
CC(=O)Nc1cc(-c2[nH]c3cc(OC(C)C)cnc3c2-c2cccc(C(F)F)n2)ccn1 [Example 102, N-(4-(3-(6-(Difluoromethyl)pyridin-2-yl)-6-isopropoxy-1H-pyrrolo[3,2-b]pyridin-2-yl)pyridin-2-yl)acetamide]	3.45 µM		
[2H]C([2H])([2H])Oc1cnc2c(-c3cccc(C(F)F)n3)c(-c3ccnc(NC(C)=O)c3)[nH]c2c1 [Example 100, N-(4-(3-(6-(Difluoromethyl)pyridin-2-yl)-6-(methoxy-d3)-1H-pyrrolo[3,2-b]pyridin-2-yl)pyridin-2-yl)acetamide]	2.62 µM		
CCOc1cnc2c(-c3cccc(C(F)F)n3)c(-c3ccnc(NC(C)=O)c3)[nH]c2c1 [Example 101, N-(4-(3-(6-(Difluoromethyl)pyridin-2-yl)-6-ethoxy-1H-pyrrolo[3,2-b]pyridin-2-yl)pyridin-2-yl)acetamide]	4.29 µM		
CC(=O)Nc1cc(-c2[nH]c3cc(OC4COC4)cnc3c2-c2cccc(C(F)F)n2)ccn1 [Example 99, N-(4-(3-(6-(Difluoromethyl)pyridin-2-yl)-6-(oxetan-3-yloxy)-1H-pyrrolo[3,2-b]pyridin-2-yl)pyridin-2-yl)acetamide]	2.75 µM		
COc1ccnc2c(-c3cccc(F)n3)c(-c3ccnc(NC(C)=O)c3)[nH]c12 [Example 273, N-(4-(3-(6-Fluoropyridin-2-yl)-7-methoxy-1H-pyrrolo[3,2-b]pyridin-2-yl)pyridin-2-yl)acetamide]	1.36 µM		
COCC(C)Oc1cnc2c(-c3cccc(C(F)F)n3)c(-c3ccnc(NC(C)=O)c3)[nH]c2c1 (stereo not shown) [Example 103]	4.92 µM		
COc1ccnc2c(-c3nc(C(F)F)cs3)c(-c3ccnc(NC(C)=O)c3)[nH]c12 [Example 270, N-(4-(3-(4-(Difluoromethyl)thiazol-2-yl)-7-methoxy-1H-pyrrolo[3,2-b]pyridin-2-yl)pyridin-2-yl)acetamide]	7.55 µM		
CC(=O)Nc1cc(-c2[nH]c3cc(Cl)cnc3c2-c2csc(C)n2)ccn1 [Example 181, N-(4-(6-Chloro-3-(2-methylthiazol-4-yl)-1H-pyrrolo[3,2-b]pyridin-2-yl)pyridin-2-yl)acetamide]	1.07 µM		
